Assays:
[1] = system: ferroptosis marker proteins (COX2, GPX4, FTH1, and TFR) in the GES-1-134 cell; experiment: WB of ferroptosis marker proteins in GES-1-134 cell treated with ferrostatin-1; format: cell-based, Human; settings: ferrostatin-1 0, 5, 10 μM, FIG. 9A
Protocol: (§1) 4. The expression of GRIM-19 was analyzed by WB, and a specific process was as follows: • (1) The cells were subjected to lysis with an RIPA lysis buffer (Beyotime) on ice for 30 min or more. • (2) A resulting lysate was centrifuged at 12,000 rpm for 10 min, and a resulting supernatant was collected. • (3) A corresponding volume of a sodium dodecyl sulfate-polyacrylamide gel electrophoresis (SDS-PAGE) protein loading buffer was added, and a resulting mixture was incubated in a metal bath at 100° C. for 10 min. • (4) SDS-PAGE was conducted. • (5) Blocking was conducted at room temperature for 30 min. • (6) A primary antibody was added, and a resulting mixture was incubated overnight at 4° C. on a shaker. • (7) A membrane was washed with TBST three times for 10 min each time. • (8) A secondary antibody was added, and a resulting mixture was incubated for 1 h at room temperature on a shaker. • (9) A membrane was washed with TBST three times for 10 min each time. • (10) Development was conducted.
(§2) WB was used to analyze the expression of ferroptosis markers in the GES-1-134 cell and the GRIM-19^−/− mouse gastric mucosal tissue that each were intervened with ferrostatin-1.

[2] = system: GES-1-134 cell (GRIM-19-knockout human gastric mucosal epithelial cell GES-1); experiment: CCK-8 proliferation viability of GES-1-134 cell intervened with ferrostatin-1; format: cell-based; settings: CCK-8, FIG. 8
Protocol: A CCK-8 kit (Solarbio) was used to analyze the proliferation viability changes of GES-1-NC and GES-1-134 cells, and a specific process was as follows: • (1) The cells were inoculated into a 96-well plate at 5,000 cells/well. • (2) The cells were cultivated at 37° C. and 5% CO2 for 24 h, 48 h, and 72 h. • (3) 10 μL of a CCK-8 solution was added to each well during detection. • (4) The plate was incubated in an incubator for 1 h. • (5) A microplate reader was used to determine the absorbance at 450 nm.
A CCK-8 kit was used to analyze a change of proliferation viability of the GES-1-134 cell intervened with the ferroptosis inhibitor ferrostatin-1. After the GES-1-134 cell was intervened with the ferroptosis inhibitor ferrostatin-1, the proliferation ability was increased and the viability was recovered.

[3] = system: inflammatory factors in the GRIM-19−/− mouse gastric mucosal tissue; experiment: WB of inflammatory factors in GRIM-19−/− mouse gastric mucosal tissue intervened with ferrostatin-1; format: in vivo
Protocol: as §1
(§3) WB was used to detect the expression of inflammatory factors in the GES-1-134 cell and GRIM-19^−/− mouse after being intervened with the ferroptosis inhibitor ferrostatin-1.

[4] = system: GIF, GSII, and Mist1 positive cells in GRIM-19−/− mouse gastric mucosal tissue; experiment: GIF/GSII/Mist1 immunofluorescence colocalization analysis of SPEM markers in GRIM-19−/− mouse gastric mucosal tissue; format: in vivo; settings: intraperitoneally injected, compared with the PBS group, FIG. 11B
Protocol: After a mouse was intraperitoneally injected with the ferroptosis inhibitor ferrostatin-1, an immunofluorescence technique was used to analyze the GIF, GSII, and Mist1 positive colocalization expression of SPEM markers in a gastric mucosal tissue, and a specific process was as follows: • (1) embedding a tissue with OCT; • (2) sectioning; • (3) fixing with 4% PFA; • (4) blocking with serum; • (5) incubating with a primary antibody overnight at 4° C.; • (6) rinsing with PBS 3 times; • (7) incubating with a secondary antibody at room temperature for 2 h; • (8) rinsing with PBS 3 times; • (9) counter-staining with DAPI for 10 min; • (10) rinsing with PBS 3 times; and • (11) mounting with an anti-fluorescence attenuation agent.

[5] = system: ferroptosis marker proteins (COX2, GPX4, FTH1, and TFR) in the GRIM-19−/− mouse gastric mucosal tissue; experiment: WB of ferroptosis marker proteins in GRIM-19−/− mouse gastric mucosal tissue intervened with ferrostatin-1; format: in vivo; settings: ferrostatin-1 injected, FIG. 9B
Protocol: as §1, §2

[6] = system: inflammatory factors IL-6, TNF-α, VEGF, GM-CSF, IL-1β, and IL-33 in the GES-1-134 cell; experiment: WB of inflammatory factors in GES-1-134 cell intervened with ferrostatin-1; format: cell-based, Human; settings: GES-1-134 cell in vitro, FIG. 10A
Protocol: as §1, §3

[7] = system: SPEM marker proteins TFF2, Mist1, Clusterin-1, HE4, and MUC6 in the GRIM-19−/− mouse gastric mucosal tissue; experiment: WB of SPEM markers in GRIM-19−/− mouse gastric mucosal tissue intervened with ferrostatin-1; format: in vivo; settings: intraperitoneally injected, compared with the PBS injection control, FIG. 11A
Protocol: as §1
WB was used to detect the expression of SPEM markers in the gastric mucosal tissue of the GRIM-19^−/− mouse intraperitoneally injected with the ferroptosis inhibitor ferrostatin-1.

[8] = compared with the PBS injection control, WB, FIG. 10B

CCOC(=O)c1ccc(NC2CCCCC2)c(N)c1 [ferrostatin-1]
decreased significantly: number of positive cells (GIF+, GSII+, Mist1+) [4]
showed the same change trend: expression level of COX-2 [5] | expression level of FTH1 [5] | expression level of GPX4 [5] | expression level of TFR [5]
significantly reduced: expression level of IL-6 [3, 8] | expression level of TNF-α [3, 8] | expression level of GM-CSF [6] | expression level of IL-1β [6] | expression level of IL-6 [6] | expression level of IL-33 [6] | expression level of TNF-α [6] | expression level of VEGF [6]
significantly weakened: expression of Clusterin-1 [7] | expression of HE4 [7] | expression of MUC6 [7] | expression of Mist1 [7] | expression of TFF2 [7]
decreased: expression level of COX-2 [1] | expression level of TFR [1] | number of GIF+/GSII+ double-positive cells [4] | number of GIF+/GSII+/Mist1+ triple-positive cells [4] | number of GIF+/Mist1+ double-positive cells [4]
increased: expression level of FTH1 [1] | expression level of GPX4 [1] | proliferation ability [2]
effectively reduce: expression of GM-CSF ([3]; in vivo injection) | expression of IL-1β ([3]; in vivo injection) | expression of IL-33 ([3]; in vivo injection) | expression of VEGF ([3]; in vivo injection)
recovered: viability [2]

Reference: patent US20240423945A1, “USE OF FERROPTOSIS INHIBITOR IN PREPARATION OF DRUG FOR TREATING GASTRITIS” (CHILDREN'S HOSPITAL OF CHONGQING MEDICAL UNIVERSITY, priority 2022, published 2024)
